These results are taken from ChEMBL document CHEMBL5465560, “Selectivity Literature for EUbOPEN Chemogenomic Library” (2024).

Assay [1] has as its target CDK8/Cyclin C (Homo sapiens) (UniProt P49336+P24863). The assay is described as follows: Selectivity interaction (LanthaScreen Eu Kinase Binding Assay) EUB0001632a CDK8. The assay is classed as protein-complex assay. Particulars: at 10 µM.
The target of assay [2] is Ribosomal protein S6 kinase beta-1 (Homo sapiens, UniProt P23443). The assay is described as follows: Selectivity interaction (KinomeScan (DiscoverX)) EUB0000595a RPS6KB1. Particulars: at 10 µM.
Assay [3] has as its target Receptor-interacting serine/threonine-protein kinase 2 (Homo sapiens, UniProt O43353). The assay is described as follows: Selectivity interaction (KinomeScan (DiscoverX)) EUB0000695a RIPK2. The conditions noted are these: at 100 nM.
For assay [4], the target named is Dual specificity tyrosine-phosphorylation-regulated kinase 1B (Homo sapiens, UniProt Q9Y463). The assay is described as follows: Selectivity interaction (KinomeScan (DiscoverX)) EUB0000607a DYRK1B. The conditions noted are these: at 10 µM.
In assay [5] the test system is Phosphatidylinositol 4,5-bisphosphate 3-kinase catalytic subunit alpha isoform (Homo sapiens), P42336 [I800L]. Particulars: at 10 µM.
For assay [6], the target named is Tyrosine-protein kinase FRK (Homo sapiens) (UniProt P42685). In words: Selectivity interaction (SelectScreen profiling (Invitrogen)) EUB0000607a FRK. The conditions noted are these: at 2 µM.
Assay [7] concerns the target Phosphatidylinositol 4-kinase beta (Homo sapiens, UniProt Q9UBF8). In words: Selectivity interaction (Enzyme panel (AstraZeneca, AlphaScreen, functional assay)) EUB0000621a PI4KB.
For assay [8], the system named is Tyrosine-protein kinase ABL1 (Homo sapiens), P00519 [Y253F]. The conditions noted are these: at 10 µM.
The target in assay [9] is T1, Serine/threonine-protein kinase 3 (Homo sapiens) (UniProt Q13188).
T1 sequence (whole entry): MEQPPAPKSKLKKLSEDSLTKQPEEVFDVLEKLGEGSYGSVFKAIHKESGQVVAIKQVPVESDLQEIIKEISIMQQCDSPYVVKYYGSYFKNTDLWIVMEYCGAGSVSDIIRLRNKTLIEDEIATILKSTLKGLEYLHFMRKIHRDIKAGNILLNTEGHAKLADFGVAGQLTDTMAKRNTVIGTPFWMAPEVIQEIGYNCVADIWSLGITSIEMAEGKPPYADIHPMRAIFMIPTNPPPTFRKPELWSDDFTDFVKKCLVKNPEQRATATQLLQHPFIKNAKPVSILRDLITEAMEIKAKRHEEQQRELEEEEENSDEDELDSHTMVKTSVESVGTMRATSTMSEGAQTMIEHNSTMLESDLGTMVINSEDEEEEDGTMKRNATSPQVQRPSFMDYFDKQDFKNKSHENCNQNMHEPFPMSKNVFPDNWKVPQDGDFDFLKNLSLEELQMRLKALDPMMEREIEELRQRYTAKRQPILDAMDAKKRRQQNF
In words: Selectivity interaction (ActivX KiNativ screen (kinase selectivity in THP-1 cell lysates)) EUB0000639a STK3. The class given is subcellular. The conditions noted are these: lysate, at 5 µM.

The target in assay [10] is Tyrosine-protein kinase Fyn (Homo sapiens) (UniProt P06241). In words: Selectivity interaction (KinomeScan (DiscoverX)) EUB0000618a FYN. The conditions noted are these: at 10 µM.
In assay [11] the target is Serine/threonine-protein kinase 10 (Homo sapiens) (UniProt O94804). The assay is described as follows: Selectivity interaction (KinomeScan (DiscoverX)) EUB0000092b STK10. Particulars: at 10 µM.
Assay [12] addresses Histone-lysine N-methyltransferase SETD2 (Homo sapiens) (UniProt Q9BYW2). In words: Selectivity interaction (Methyltransferase screen (radiometric assays, panel of 8 PRMTs, 21 protein lysine methyltransferases, 3 DNA methyltransferases, and one RNA methyltransferase)) EUB0000272b SETD2.
For assay [13], the target named is T2, Bone morphogenetic protein receptor type-2 (Homo sapiens) (UniProt Q13873).
T2 sequence (whole entry): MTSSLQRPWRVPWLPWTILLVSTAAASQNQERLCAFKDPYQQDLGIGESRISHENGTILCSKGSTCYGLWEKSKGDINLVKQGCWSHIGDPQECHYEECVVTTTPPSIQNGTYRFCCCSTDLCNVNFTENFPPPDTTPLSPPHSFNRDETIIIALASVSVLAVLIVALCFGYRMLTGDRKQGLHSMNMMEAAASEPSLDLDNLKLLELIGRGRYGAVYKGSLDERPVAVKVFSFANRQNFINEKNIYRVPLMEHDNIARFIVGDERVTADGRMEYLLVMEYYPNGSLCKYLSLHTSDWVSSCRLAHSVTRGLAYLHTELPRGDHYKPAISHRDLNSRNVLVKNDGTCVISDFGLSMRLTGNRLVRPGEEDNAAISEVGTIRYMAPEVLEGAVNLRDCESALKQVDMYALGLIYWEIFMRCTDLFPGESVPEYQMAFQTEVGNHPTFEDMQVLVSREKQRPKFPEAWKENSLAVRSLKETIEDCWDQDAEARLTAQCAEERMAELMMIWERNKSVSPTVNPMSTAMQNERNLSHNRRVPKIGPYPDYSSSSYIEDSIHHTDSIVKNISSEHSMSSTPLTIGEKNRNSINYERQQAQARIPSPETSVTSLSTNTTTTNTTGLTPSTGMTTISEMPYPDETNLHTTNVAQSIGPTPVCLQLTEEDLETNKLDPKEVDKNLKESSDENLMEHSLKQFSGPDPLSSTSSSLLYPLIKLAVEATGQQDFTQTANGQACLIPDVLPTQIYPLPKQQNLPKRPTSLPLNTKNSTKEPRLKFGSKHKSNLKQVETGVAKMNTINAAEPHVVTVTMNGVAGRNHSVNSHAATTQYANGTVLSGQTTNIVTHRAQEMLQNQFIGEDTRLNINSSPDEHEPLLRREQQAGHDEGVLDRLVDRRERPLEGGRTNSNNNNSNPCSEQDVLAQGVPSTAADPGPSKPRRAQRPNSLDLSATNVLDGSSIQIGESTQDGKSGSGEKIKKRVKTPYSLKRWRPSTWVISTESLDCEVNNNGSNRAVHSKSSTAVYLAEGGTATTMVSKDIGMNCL
The assay is described as follows: Selectivity interaction (Kinase panel (DSF assay)) EUB0001558a BMPR2. On the technique in general: Differential scanning fluorimetry follows unfolding on heating by fluorescence.

Assay [14] has as its system Epidermal growth factor receptor (Homo sapiens), P00533 [UNDEFINED MUTATION]. In words: Selectivity interaction (KinomeScan (DiscoverX)) EUB0000229b EGFR. Particulars: at 1 µM.

pIC50: −log10 of the molar value.

Chain of Histone-lysine N-methyltransferase SETD2 (Homo sapiens) (Q9BYW2 whole entry): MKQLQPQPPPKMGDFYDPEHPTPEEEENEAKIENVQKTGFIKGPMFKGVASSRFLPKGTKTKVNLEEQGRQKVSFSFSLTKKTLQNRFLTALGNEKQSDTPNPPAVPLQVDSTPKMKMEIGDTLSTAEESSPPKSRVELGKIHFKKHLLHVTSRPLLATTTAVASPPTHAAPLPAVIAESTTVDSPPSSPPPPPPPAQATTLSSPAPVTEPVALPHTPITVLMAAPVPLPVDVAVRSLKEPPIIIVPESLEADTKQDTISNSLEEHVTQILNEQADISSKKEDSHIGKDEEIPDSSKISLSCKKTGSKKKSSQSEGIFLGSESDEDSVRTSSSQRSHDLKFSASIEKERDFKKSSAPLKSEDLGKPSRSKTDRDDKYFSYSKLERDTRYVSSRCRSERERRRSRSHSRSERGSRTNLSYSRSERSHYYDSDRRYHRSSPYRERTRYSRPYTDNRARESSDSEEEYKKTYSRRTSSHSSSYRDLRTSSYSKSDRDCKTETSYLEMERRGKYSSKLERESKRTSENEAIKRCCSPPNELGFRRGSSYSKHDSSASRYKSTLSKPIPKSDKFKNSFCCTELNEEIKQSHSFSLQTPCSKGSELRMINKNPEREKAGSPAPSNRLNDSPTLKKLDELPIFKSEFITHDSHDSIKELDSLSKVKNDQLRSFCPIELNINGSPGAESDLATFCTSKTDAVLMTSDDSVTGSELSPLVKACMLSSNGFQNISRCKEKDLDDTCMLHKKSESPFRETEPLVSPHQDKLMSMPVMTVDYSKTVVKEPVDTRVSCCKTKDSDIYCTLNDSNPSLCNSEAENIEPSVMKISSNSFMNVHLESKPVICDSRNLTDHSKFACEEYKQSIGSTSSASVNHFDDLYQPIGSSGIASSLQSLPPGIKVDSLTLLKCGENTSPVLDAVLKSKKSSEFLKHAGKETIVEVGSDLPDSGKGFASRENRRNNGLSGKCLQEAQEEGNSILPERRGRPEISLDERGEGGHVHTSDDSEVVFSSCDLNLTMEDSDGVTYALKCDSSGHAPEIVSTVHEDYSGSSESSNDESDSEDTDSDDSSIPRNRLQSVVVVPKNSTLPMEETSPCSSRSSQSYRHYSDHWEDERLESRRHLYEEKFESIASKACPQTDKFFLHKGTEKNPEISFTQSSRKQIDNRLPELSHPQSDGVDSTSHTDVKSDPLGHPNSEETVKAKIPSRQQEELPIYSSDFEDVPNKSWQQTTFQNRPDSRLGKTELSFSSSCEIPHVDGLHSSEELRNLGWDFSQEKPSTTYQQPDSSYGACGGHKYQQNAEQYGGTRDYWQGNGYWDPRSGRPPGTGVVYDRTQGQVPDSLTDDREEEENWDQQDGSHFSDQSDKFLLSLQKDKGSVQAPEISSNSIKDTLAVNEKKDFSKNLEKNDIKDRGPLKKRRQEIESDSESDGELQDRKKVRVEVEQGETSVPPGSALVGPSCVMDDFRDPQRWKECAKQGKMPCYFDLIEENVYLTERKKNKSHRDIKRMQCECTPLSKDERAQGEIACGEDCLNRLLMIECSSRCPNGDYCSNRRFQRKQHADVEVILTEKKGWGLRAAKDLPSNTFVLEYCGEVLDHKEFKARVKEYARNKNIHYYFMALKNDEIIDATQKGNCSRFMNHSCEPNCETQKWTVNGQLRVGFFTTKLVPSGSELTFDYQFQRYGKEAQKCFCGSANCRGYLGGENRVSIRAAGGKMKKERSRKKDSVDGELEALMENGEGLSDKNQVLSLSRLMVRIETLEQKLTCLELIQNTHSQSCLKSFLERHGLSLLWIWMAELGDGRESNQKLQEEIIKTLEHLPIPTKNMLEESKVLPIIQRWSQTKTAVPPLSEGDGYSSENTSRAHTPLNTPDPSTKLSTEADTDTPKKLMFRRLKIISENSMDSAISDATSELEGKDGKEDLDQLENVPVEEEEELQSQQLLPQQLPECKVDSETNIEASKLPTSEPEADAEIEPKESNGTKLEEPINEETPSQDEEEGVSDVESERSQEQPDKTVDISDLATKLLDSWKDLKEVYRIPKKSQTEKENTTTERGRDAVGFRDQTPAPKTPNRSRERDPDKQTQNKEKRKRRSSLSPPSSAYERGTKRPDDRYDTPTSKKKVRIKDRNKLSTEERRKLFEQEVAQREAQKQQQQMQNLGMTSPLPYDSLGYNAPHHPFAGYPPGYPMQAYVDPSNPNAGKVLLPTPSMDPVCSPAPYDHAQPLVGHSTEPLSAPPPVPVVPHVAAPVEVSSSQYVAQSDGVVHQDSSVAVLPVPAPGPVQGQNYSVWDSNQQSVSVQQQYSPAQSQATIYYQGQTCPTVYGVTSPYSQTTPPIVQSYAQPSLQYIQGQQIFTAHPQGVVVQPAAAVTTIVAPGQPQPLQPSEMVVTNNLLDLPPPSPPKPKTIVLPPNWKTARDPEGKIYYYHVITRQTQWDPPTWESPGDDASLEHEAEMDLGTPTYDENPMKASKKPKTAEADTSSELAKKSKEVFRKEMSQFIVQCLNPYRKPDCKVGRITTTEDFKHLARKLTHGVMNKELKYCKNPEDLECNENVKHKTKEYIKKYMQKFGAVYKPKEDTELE
Chain of Tyrosine-protein kinase Fyn (Homo sapiens) (P06241 2-537 limits assumed): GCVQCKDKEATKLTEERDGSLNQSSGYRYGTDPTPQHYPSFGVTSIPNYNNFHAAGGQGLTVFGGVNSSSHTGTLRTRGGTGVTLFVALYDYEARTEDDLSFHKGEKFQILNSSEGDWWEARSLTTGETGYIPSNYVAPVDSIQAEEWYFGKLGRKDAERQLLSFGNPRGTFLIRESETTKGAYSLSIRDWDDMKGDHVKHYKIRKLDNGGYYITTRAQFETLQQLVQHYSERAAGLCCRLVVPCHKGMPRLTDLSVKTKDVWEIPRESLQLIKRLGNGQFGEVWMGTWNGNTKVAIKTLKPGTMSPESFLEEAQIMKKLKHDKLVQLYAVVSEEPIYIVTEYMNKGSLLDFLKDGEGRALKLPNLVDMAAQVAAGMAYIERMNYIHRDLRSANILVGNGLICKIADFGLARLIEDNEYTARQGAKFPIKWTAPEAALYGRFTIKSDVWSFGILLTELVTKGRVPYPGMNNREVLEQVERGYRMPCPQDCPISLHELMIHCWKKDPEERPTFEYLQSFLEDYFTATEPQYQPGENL
Chain of Phosphatidylinositol 4-kinase beta (Q9UBF8 whole entry): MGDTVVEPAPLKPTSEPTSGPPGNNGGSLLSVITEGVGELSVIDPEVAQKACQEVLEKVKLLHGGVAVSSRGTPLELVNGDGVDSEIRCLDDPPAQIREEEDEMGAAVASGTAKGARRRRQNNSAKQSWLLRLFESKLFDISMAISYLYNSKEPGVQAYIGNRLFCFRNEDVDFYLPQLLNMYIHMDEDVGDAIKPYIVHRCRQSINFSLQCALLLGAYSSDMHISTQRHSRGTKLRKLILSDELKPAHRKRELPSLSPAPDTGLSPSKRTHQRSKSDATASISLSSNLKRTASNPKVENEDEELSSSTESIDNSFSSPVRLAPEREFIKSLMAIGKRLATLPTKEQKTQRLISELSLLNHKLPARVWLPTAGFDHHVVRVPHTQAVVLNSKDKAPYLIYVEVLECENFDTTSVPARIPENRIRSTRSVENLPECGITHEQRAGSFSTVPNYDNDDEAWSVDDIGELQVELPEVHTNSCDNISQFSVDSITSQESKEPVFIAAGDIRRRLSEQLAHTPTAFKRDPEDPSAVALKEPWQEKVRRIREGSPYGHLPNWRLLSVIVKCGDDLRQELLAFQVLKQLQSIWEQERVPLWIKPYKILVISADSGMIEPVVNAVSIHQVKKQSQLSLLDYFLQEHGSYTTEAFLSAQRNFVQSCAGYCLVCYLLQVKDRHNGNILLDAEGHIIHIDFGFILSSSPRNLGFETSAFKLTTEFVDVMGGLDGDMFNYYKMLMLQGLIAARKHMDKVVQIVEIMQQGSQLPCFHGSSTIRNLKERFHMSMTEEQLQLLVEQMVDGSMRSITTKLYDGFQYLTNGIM
Chain of Phosphatidylinositol 4,5-bisphosphate 3-kinase catalytic subunit alpha isoform (Homo sapiens), P42336 [I800L] (P42336 whole entry I800L, canonical isoform): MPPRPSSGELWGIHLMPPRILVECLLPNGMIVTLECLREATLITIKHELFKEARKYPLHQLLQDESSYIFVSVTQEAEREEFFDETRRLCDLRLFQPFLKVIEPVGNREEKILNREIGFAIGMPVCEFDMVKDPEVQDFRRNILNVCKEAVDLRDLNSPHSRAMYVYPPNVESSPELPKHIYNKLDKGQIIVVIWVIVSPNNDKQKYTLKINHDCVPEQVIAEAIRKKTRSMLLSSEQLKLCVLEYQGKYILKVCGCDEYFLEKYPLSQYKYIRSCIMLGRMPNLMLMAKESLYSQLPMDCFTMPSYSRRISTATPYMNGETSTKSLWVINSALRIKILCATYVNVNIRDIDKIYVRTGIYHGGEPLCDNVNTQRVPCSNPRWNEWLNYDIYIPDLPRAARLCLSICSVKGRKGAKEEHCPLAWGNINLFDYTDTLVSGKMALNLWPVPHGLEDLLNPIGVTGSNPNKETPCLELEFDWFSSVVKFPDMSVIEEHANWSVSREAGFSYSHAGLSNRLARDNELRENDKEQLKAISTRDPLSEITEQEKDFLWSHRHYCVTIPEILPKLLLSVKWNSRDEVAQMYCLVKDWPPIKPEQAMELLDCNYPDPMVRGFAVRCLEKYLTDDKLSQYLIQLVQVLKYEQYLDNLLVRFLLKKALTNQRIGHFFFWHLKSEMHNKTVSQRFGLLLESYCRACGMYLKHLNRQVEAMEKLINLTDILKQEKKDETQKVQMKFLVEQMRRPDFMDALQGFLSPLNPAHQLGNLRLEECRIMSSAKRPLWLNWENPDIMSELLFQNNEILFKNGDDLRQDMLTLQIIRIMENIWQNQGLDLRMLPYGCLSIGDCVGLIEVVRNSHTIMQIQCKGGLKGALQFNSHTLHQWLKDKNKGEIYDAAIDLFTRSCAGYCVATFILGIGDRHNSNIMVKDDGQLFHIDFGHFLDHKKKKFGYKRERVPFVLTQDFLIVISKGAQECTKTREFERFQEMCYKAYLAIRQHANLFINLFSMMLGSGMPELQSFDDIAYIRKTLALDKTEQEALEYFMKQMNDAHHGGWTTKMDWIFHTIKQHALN

`Cn1cc(-n2cnc3c(NCc4nc5cc(Cl)c(Cl)cc5[nH]4)nc(N4CCOCC4)nc32)cn1`: in assay [1], the % of inhibition came out at 17.1%.

`COCC(=O)NC/C=C/c1ccc2ncnc(Nc3ccc(Oc4ccc(C)nc4)c(C)c3)c2c1` [CP-724714] gave a % of control in assay [2] of 65%.

On to `Cc1cc(F)c(C(=O)Nc2cccc(-c3nncn3C(C)C)n2)cc1-n1cnc(C2CC2)c1`, for which the % of control in assay [3] turned out to be 100%.

On to `CNC(=O)Nc1ccc(-c2nc(N3CC4CCC(C3)O4)c3cnn(C4CCC5(CC4)OCCO5)c3n2)cc1`, for which the % of control in assay [4] stood at 100%; in assay [5], 5%. Moreover, the % of inhibition in assay [6] is 3%.

The compound `Cc1cc([C@@H](C)Nc2ccccc2C(=O)O)c2nc(N3CCOCC3)cc(=O)n2c1` [AZD-6482] gave a pIC50 in assay [7] of 8.00. The same compound had a % of control in [8] of 100%.

As for `CC[C@@H]1[C@H](F)C(=O)N[C@@H]1COc1nccc2cc(C(N)=O)c(OC)cc12` [ZIMLOVISERTIB], the % of inhibition in assay [9] is -19.6%.

Compound `O[C@H]1CC[C@H](Nc2ncc3nc(Nc4c(F)cc(F)cc4F)n([C@H]4CCOC4)c3n2)CC1` yielded a % of control in assay [10] of 100%.

The compound `CCC(=O)N1CCN(c2ccc(-n3c(=O)ccc4cnc5ccc(-c6cnc7ccccc7c6)cc5c43)cc2C(F)(F)F)CC1` showed a % of control in assay [11] of 79%.

On to `Cc1cc(C)cc([C@H]2c3cc(C)ccc3NC(=O)CN2C(=O)c2ccc(Br)s2)c1`, for which the % of activity in assay [12] (at 1 µM) was found to be 98%; in [12] (at 10 µM), 98.3%.

For the compound `CC(C)(O)[C@H](F)CN1Cc2cc(NC(=O)c3cnn4cccnc34)c(N3CCOCC3)cc2C1=O`, the dTM in assay [13] was 2.1 K.

The compound `COc1cc(N(C)c2ccnc3ccc(C(F)(F)F)cc23)cc(OC)c1OC` gave a % binding in assay [14] of 98%.

For orientation: pIC50 means the IC50 on a negative log10 scale, so that one unit is a factor of ten.
